# Reference: patent US9556153B1, “JAK1 inhibitors” (Eli Lilly and Company, priority 2015, dated 2017)
# Test system: pSTAT3 expression in the H1975 xenograft
# Assay: pSTAT3 Rat IVTI (JAK1) Assay, H1975 xenograft
# Format: in vivo
# Conditions: single oral dose, two hours, n=1
# Method: pSTAT3 Rat IVTI (JAK1) Assay
# The purpose of this assay is to measure the ability of test compounds to inhibit the pSTAT3 expression in the H1975 xenograft rat model. Grow H1975 cells according to ATCC specifications at the lowest possible passage number available. Culture and maintain cells in RPMI-1640 supplemented with 10% FBS and incubated at 37° C. in 5% CO2. Harvest cells by standard techniques and mix with BD Biosciences basement membrane matrix (MATRIGEL®) to achieve a 1:1 cell/matrix ratio yielding an inoculation volume of 0.2 mL cell/matrix suspension containing 2e6 cells. Keep cell suspensions on ice throughout the inoculation procedure and start implantations within one hour after cell culture harvest. […] Time course studies are a single dose administered at the TED70 determined from the dose response study. […]
# Harvest and cut tumors to yield approximately 200-250 mm^3 size fragments and immediately drop into a 12×75 mm tube containing 1 mL of ice cold MSD Tris Lysis buffer (Meso Scale Discovery cat# R60TX-2) and 1×HALT (Thermo Scientific product #1861281). […] Cool plate to RT and measure absorbance at or near 562 nm on Molecular Devices Spectra Max. Protein concentrations for each sample are determined using SoftMax Pro 6.3 software program. After tumor samples are quantitated, freeze at −80° C. in the 96 well polypropylene plate and assay at a later date. […]
structure (smiles),measurement,value
"Cc1cc(Nc2cc(O[C@H]3CC[C@@H](NC[C@@H](O)C(F)(F)F)CC3)cc3c2ncn3C)nn1C [Example 1, (2R)-3-{[cis-4-({4-[(1,5-Dimethyl-1H-pyrazol-3-yl)amino]-1-methyl-1H-benzimidazol-6-yl}oxy)cyclohexyl]amino}-1,1,1-trifluoropropan-2-ol]",TEC50 (plasma concentration required to achieve 50% pSTAT3 inhibition),3.9 μM
same,TED50 (dose necessary to achieve 50% pSTAT3 inhibition),9 mg/kg
